# Test results published in patent publication US11180474B2 (BRISTOL-MYERS SQUIBB COMPANY, priority 2016, dated 2021).
# How the values were obtained:
# human TLR8 = biological target: T1, human TLR8 (Homo sapiens, UniProt Q9NR97); test: TLR8 inhibition reporter assay (HEK-Blue cells, SEAP reporter, R848 stimulation); format: cell-based; conditions: HEK-Blue cells overexpressing human TLR8, R848 15.9 μM
# T1 construct: host or cells: HEK-Blue cells
# T1 sequence (Q9NR97 27-1041): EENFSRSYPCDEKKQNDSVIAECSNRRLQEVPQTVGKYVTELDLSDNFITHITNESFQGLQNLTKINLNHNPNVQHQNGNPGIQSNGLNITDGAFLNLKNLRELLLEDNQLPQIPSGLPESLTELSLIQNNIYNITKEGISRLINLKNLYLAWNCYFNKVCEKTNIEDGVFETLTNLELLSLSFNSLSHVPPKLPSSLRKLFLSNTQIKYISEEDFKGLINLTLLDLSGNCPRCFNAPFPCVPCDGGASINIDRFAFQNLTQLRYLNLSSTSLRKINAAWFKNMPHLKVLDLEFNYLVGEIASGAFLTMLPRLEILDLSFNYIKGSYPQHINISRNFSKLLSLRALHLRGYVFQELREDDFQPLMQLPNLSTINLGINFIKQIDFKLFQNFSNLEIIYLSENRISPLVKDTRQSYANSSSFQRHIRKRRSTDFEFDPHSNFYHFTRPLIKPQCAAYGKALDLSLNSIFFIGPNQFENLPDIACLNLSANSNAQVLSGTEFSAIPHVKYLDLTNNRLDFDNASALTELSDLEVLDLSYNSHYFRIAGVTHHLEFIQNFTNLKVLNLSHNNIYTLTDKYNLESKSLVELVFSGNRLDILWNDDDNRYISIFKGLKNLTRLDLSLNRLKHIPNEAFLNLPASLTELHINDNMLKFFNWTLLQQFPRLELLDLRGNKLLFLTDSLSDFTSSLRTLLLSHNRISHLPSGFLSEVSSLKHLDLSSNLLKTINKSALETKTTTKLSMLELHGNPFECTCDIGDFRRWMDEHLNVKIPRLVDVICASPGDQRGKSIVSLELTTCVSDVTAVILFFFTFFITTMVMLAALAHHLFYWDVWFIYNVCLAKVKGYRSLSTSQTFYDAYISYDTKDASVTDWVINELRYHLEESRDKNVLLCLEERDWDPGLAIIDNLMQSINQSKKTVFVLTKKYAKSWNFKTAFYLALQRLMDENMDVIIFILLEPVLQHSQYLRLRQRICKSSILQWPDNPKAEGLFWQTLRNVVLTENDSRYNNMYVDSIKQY
# Method in brief: (§1)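 22 h, 37° C, 5% CO2 incubation; compounds 0.05 nM-50 μM final; TLR7 cells 15000/well, TLR8 20,000/well. Readout: SEAP via HEK-Blue Detection medium. % inhibition = signal reduction versus agonist + DMSO wells, referenced to known inhibitor.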
# human TLR7 = biological target: T2, human TLR7 (Homo sapiens, UniProt Q9NYK1); test: TLR7 inhibition reporter assay (HEK-Blue cells, SEAP reporter, gardiquimod stimulation); format: cell-based; conditions: HEK-Blue cells overexpressing human TLR7, gardiquimod 7.5 μM
# T2 construct: host or cells: HEK-Blue cells
# T2 sequence (Q9NYK1 27-1049): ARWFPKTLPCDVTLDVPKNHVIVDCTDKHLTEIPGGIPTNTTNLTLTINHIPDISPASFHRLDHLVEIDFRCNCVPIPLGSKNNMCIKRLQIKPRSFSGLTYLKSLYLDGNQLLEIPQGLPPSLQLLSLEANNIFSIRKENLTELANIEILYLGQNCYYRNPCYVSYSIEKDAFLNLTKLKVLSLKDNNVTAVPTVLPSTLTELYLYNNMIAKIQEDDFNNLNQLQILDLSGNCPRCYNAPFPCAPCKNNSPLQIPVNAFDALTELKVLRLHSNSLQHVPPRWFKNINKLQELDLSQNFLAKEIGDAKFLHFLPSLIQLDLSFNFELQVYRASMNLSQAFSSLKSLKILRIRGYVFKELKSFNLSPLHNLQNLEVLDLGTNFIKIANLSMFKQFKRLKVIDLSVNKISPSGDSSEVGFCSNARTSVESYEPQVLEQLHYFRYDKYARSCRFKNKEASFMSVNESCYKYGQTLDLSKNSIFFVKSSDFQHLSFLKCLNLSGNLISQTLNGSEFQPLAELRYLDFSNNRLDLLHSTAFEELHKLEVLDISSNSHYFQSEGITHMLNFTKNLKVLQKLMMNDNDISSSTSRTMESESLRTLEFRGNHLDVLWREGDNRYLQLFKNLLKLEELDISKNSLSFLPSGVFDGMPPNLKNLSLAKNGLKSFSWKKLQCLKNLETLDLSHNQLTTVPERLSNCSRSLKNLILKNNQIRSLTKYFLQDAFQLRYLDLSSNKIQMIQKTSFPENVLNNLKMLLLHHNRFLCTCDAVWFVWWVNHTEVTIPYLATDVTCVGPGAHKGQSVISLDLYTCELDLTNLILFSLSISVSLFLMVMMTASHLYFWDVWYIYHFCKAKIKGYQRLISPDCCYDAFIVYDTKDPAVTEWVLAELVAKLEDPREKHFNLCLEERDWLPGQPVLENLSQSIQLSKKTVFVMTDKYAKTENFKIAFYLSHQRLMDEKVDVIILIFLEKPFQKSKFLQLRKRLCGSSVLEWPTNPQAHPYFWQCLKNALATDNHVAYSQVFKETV
# Method in brief: as §1
Structure (SMILES),IC50 (human TLR8),IC50 (human TLR7)
"COc1ccc(-c2[nH]c3ccc(C4CCN(C(=O)CN5CCCN(C(C)=O)CC5)CC4)cc3c2C(C)C)cc1OC [Example 222, 2-(4-acetyl-1,4-diazepan-1-yl)-1-(4-(2-(3,4-dimethoxyphenyl)-3-isopropyl-1H-indol-5-yl)piperidin-1-yl)ethan-1-one]",67 nM,45 nM
"COc1ccc(-c2[nH]c3ccc(C4CCN(CC(=O)NCCCO)CC4)cc3c2C(C)C)cc1OC [Example 277, 2-(4-(2-(3,4-dimethoxyphenyl)-3-isopropyl-1H-indol-5-yl)piperidin-1-yl)-N-(3-hydroxypropyl)acetamide]",37 nM,16 nM
"COc1ccc(-c2[nH]c3ccc(C4CCN(CC(=O)N(C)C)CC4)cc3c2C(C)C)cc1OC [Example 312, 2-(4-(2-(3,4-dimethoxyphenyl)-3-isopropyl-11H-indol-5-yl)piperidin-1-yl)-N,N-dimethylacetamide]",28 nM,8 nM
"COc1ccc(-c2[nH]c3ccc(C4CCN(C(=O)CN[C@@H](CO)CC(C)C)CC4)cc3c2C(C)C)cc1OC [Example 234, (R)-1-(4-(2-(3,4-dimethoxyphenyl)-3-isopropyl-1H-indol-5-yl)piperidin-1-yl)-2-((1-hydroxy-4-methylpentan-2-yl)amino) ethan-1-one]",63 nM,172 nM
"COc1ccc(-c2[nH]c3ccc(C4CCN(C(=O)CN5CCC[C@@H](C(=O)N6CCC(N(C)C)CC6)C5)CC4)cc3c2C(C)C)cc1OC [Example 305, (R)-1-(4-(2-(3,4-dimethoxyphenyl)-3-isopropyl-1H-indol-5-yl)piperidin-1-yl)-2-(3-(4-(dimethylamino)piperidine-1-carbonyl)piperidin-1-yl)ethan-1-one]",26 nM,27 nM
"COc1ccc(-c2[nH]c3ccc(C4CCN(C(=O)CN5CCN(CC(=O)NC(C)C)CC5)CC4)cc3c2C(C)C)cc1OC [Example 229, 2-(4-(2-(4-(2-(3,4-dimethoxyphenyl)-3-isopropyl-1H-indol-5-yl)piperidin-1-yl)-2-oxoethyl)piperazin-1-yl)-N-isopropylacetamide]",43 nM,25 nM
"COc1ccc(-c2[nH]c3ccc(C4CCN(CC(=O)NCCO)CC4)cc3c2C(C)C)cc1OC [Example 276, 2-(4-(2-(3,4-dimethoxyphenyl)-3-isopropyl-1H-indol-5-yl)piperidin-1-yl)-N-(2-hydroxyethyl) acetamide]",27 nM,17 nM
"COc1ccc(-c2[nH]c3ccc(C4CCN(C(=O)CN5CCC[C@@H](C(=O)N(C)C(C)C)C5)CC4)cc3c2C(C)C)cc1OC [Example 304, (R)-1-(2-(4-(2-(3,4-dimethoxyphenyl)-3-isopropyl-1H-indol-5-yl)piperidin-1-yl)-2-oxoethyl)-N-isopropyl-N-methylpiperidine-3-carboxamide]",61 nM,64 nM
"COc1ccc(-c2[nH]c3ccc(C4CCN(C(=O)CN(C)C(C)C)CC4)cc3c2C(C)C)cc1OC [Example 227, 1-(4-(2-(3,4-dimethoxyphenyl)-3-isopropyl-1H-indol-5-yl)piperidin-1-yl)-2-(isopropyl(methyl)amino) ethan-1-one]",24 nM,29 nM
"COc1ccc(-c2[nH]c3ccc(C4CCN(C(=O)CN5CCC[C@H](C(=O)N6CC[C@H](O)C6)C5)CC4)cc3c2C(C)C)cc1OC [Example 301, 1-(4-(2-(3,4-dimethoxyphenyl)-3-isopropyl-1H-indol-5-yl)piperidin-1-yl)-2-((S)-3-((S)-3-hydroxypyrrolidine-1-carbonyl)piperidin-1-yl)ethan-1-one]",19 nM,66 nM
"COc1ccc(-c2[nH]c3ccc(C4CCN(C(=O)CN5CCC[C@@H](C(=O)N6C(C)CCC6C)C5)CC4)cc3c2C(C)C)cc1OC (stereo partly drawn) [Example 311, 1-(4-(2-(3,4-dimethoxyphenyl)-3-isopropyl-1H-indol-5-yl)piperidin-1-yl)-2-((3R)-3-(2,5-dimethylpyrrolidine-1-carbonyl)piperidin-1-yl)ethan-1-one]",60 nM,148 nM
"COc1ccc(-c2[nH]c3ccc(C4CCN(C(=O)CN5CCCN(C)CC5)CC4)cc3c2C(C)C)cc1OC [Example 239, 1-(4-(2-(3,4-dimethoxyphenyl)-3-isopropyl-1H-indol-5-yl)piperidin-1-yl)-2-(4-methyl-1,4-diazepan-1-yl)ethan-1-one]",17 nM,11 nM
"COc1ccc(-c2[nH]c3ccc(C4CCN(Cc5cnc[nH]5)CC4)cc3c2C(C)C)cc1OC [Example 268, 5-(1-((1H-imidazol-5-yl)methyl)piperidin-4-yl)-2-(3,4-dimethoxyphenyl)-3-isopropyl-1H-indole]",15 nM,31 nM
"COc1ccc(-c2[nH]c3ccc(C4CCN(C(=O)CN5CCC[C@H](C(=O)N6C(C)CCC6C)C5)CC4)cc3c2C(C)C)cc1OC (stereo partly drawn) [Example 300, 1-(4-(2-(3,4-dimethoxyphenyl)-3-isopropyl-1H-indol-5-yl)piperidin-1-yl)-2-((3S)-3-(2,5-dimethylpyrrolidine-1-carbonyl)piperidin-1-yl)ethan-1-one]",70 nM,85 nM
"COc1ccc(-c2[nH]c3ccc(C4CCN(C(=O)CN5CCC(O)CC5)CC4)cc3c2C(C)C)cc1OC [Example 238, 1-(4-(2-(3,4-dimethoxyphenyl)-3-isopropyl-1H-indol-5-yl)piperidin-1-yl)-2-(4-hydroxypiperidin-1-yl) ethan-1-one]",5 nM,36 nM
"COc1ccc(-c2[nH]c3ccc(C4CCN(C5CCN(C6CC6)CC5)CC4)cc3c2C)cc1OC [Example 23, 5-(1′-cyclopropyl-[1,4′-bipiperidin]-4-yl)-2-(3,4-dimethoxyphenyl)-3-methyl-1H-indole]",151 nM,101 nM
"COc1ccc(-c2[nH]c3ccc(C4CCN(C(=O)CN5CCC(N(C)C)CC5)CC4)cc3c2C(C)C)cc1OC [Example 244, 1-(4-(2-(3,4-dimethoxyphenyl)-3-isopropyl-1H-indol-5-yl)piperidin-1-yl)-2-(4-(dimethylamino)piperidin-1-yl)ethan-1-one]",16 nM,6 nM
"COc1ccc(-c2[nH]c3ccc(C4CCNCC4O)cc3c2C(C)C)cc1OC (single isomer, unassigned) [Example 317, 4-(2-(3,4-dimethoxyphenyl)-3-isopropyl-1H-indol-5-yl)piperidin-3-ol 2,2,2-trifluoroacetate]",82 nM,38 nM
